Measurements from patent US20080085886A1, “Aza-benzofuranyl compounds and methods of use” (GENENTECH, INC., priority 2006, published 2008).

Test system: cellular p-ERK in HCT116 human colorectal carcinoma / A375 human malignant melanoma cell lines
Assay: Phospho-ERK cell-based assay (ELISA), Example 4
Settings: in either one of the cell lines (HCT116, A375), 2 h or 24 h exposure
Protocol: Example 4 Phospho-ERK Cell-Based Assay
Compounds are tested in a cell-based phospho-ERK ELISA using the following cell lines:
HCT116 human colorectal carcinoma (ATCC)
A375 human malignant melanoma (ATCC)
Both cell lines are maintained in DMEM/F12 (1:1) media (Gibco) supplemented with 10% FCS at 37° C. in a 5% CO2 humidified incubator.
Cells are seeded in 96-well plates at 2,000 cells/well and after 24 h they are exposed to different concentrations of compounds in 0.83% DMSO. Cells are grown for a further 2 h or 24 h, fixed with formaldehyde (2% final) and permeabilised with methanol. Following blocking with TBST-3% BSA, fixed cells are incubated with primary antibody (anti-phospho ERK from rabbit) over-night at 4° C. Cells are incubated with Propidium Iodide (DNA fluorescent dye) and detection of cellular p-ERK is performed using an anti-rabbit secondary antibody conjugated to the fluorescent Alexa Fluor 488 dye (Molecular probes). The fluorescence is analysed using the Acumen Explorer (TTP Labtech), a laser-scanning microplate cytometer, and the Alexa Fluor 488 signal is normalised to the PI signal (proportional to cell number).
The EC50 is defined as the concentration at which a given compound achieves a signal half way between the baseline and the maximum response. EC50 values are calculated using the XLfit software package (version 2.0.5).

Row | EC50 [µM] | Compound
1 | < 10 | N[C@@H]1CCN(C(=O)c2oc3ccncc3c2Nc2ccc(I)cc2F)C1 [Example 74, (3-(2-fluoro-4-iodophenylamino)furo[3,2-c]pyridin-2-yl)((R)-3-aminopyrrolidin-1-yl)methanone]
2 | < 10 | CC1(O)CCN(C(=O)c2oc3ccncc3c2Nc2ccc(I)cc2F)C1 (stereo not shown) [Example 120, (3-(2-fluoro-4-iodophenylamino)furo[3,2-c]pyridine-2-yl)(3-hydroxy-3-methylpyrrolidin-1-yl)methanone]
3 | < 10 | C[C@@H](O)CONC(=O)c1oc2ccncc2c1Nc1ccc(I)cc1F [Example 117, 3-(2-Fluoro-4-iodo-phenylamino)-furo[3,2-c]pyridine-2-carboxylic acid ((R)-2-hydroxy-propoxy)-amide]
4 | < 10 | O=C(NCCCONC(=O)c1oc2ccncc2c1Nc1ccc(I)cc1F)c1ccccn1 [Example 46]
5 | < 10 | CCONC(=O)c1oc2ccncc2c1Nc1ccc(I)cc1F [Example 50, (2-Fluoro-4-iodo-phenyl amino)-N-ethoxyfuro[3,2-c]pyridine-2-carboxamide]
6 | < 10 | O=C(c1oc2ccncc2c1Nc1ccc(I)cc1F)N1CC[C@@H](O)[C@H]1CO [Example 123]
7 | < 10 | O=C(c1oc2ccncc2c1Nc1ccc(I)cc1F)N1C[C@H](O)[C@@H](O)C1 [Example 60, (3-(2-fluoro-4-iodophenyl amino)furo[3,2-c]pyridin-2-yl)((3S,4S)-3,4-dihydroxypyrrolidin-1-yl)methanone]
8 | < 10 | O=C(c1oc2ccncc2c1Nc1ccc(I)cc1F)N1CCC[C@@H]1CO [Example 87, (3-(2-fluoro-4-iodophenylamino)furo[3,2-c]pyridin-2-yl)((R)-2-(hydroxylmethyl)pyrrolidin-1-yl)methanone]
9 | < 10 | CNC(=O)c1oc2ccncc2c1Nc1ccc(I)cc1F [Example 91, 3-(2-fluoro-4-iodophenylamino)-N-methylfuro[3,2-c]pyridine-2-carboxamide]
10 | < 10 | C[C@H](O)CONC(=O)c1oc2ccncc2c1Nc1ccc(I)cc1F [Example 118, 3-(2-Fluoro-4-iodo-phenylamino)-furo[3,2-c]pyridine-2-carboxylic acid ((S)-2-hydroxy-propoxy)-amide]
11 | < 10 | O=C(c1oc2c(F)cncc2c1Nc1ccc(I)cc1F)N1CC[C@@H](O)C1 [Example 157, [7-Fluoro-3-(2-fluoro-4-iodo-phenylamino)-furo[3,2-c]pyridin-2-yl]-((R)-3-hydroxy-pyrrolidin-1-yl)-methanone]
12 | < 10 | O=C(NOCCO)c1oc2c(F)cncc2c1Nc1ccc(I)cc1F [Example 139, 7-Fluoro-3-(2-fluoro-4-iodo-phenylamino)-furo[3,2-c]pyridine-2-carboxylic acid (2-hydroxy-ethoxy)-amide]
13 | < 10 | O=C(c1oc2ccncc2c1Nc1ccc(I)cc1F)N1CC(O)C1 [Example 122, (3-(2-fluoro-4-iodophenylamino)furo[3,2-c]pyridin-2-yl)(3-hydroxyazetidin-1-yl)methanone]
14 | < 10 | CN(C)C(=O)c1oc2ccncc2c1Nc1ccc(I)cc1F [Example 83, 3-(2-fluoro-4-iodophenylamino)-N,N-dimethylfuro[3,2-c]pyridine-2-carboxamide]
15 | < 10 | O=C(c1oc2ccncc2c1Nc1ccc(I)cc1F)N1C[C@@H](O)[C@H](O)[C@H]1CO [Example 124, (3-(2-fluoro-4-iodophenylamino)furo[3,2-c]pyridin-2-yl)((2R,3R,4R)-3,4-dihydroxy-2-(hydroxymethyl)pyrrolidin-1-yl)methanone]
16 | < 10 | O=C(NOC[C@H](O)CO)c1oc2c(F)cncc2c1Nc1ccc(I)cc1F [Example 159, 7-Fluoro-3-(2-fluoro-4-iodo-phenylamino)-furo[3,2-c]pyridine-2-carboxylic acid ((R)-2,3-dihydroxy-propoxy)-amide]
17 | < 10 | CONC(=O)c1oc2ccncc2c1Nc1ccc(I)cc1F [Example 29, 3-(2-Fluoro-4-iodo-phenylamino)-furo[3,2-c]pyridine-2-carboxylic acid methoxy-amide]
18 | < 10 | O=C(c1oc2ccncc2c1Nc1ccc(I)cc1F)N1CC[C@H](O)C1 [Example 70, (3-(2-fluoro-4-iodophenylamino)furo[3,2-c]pyridin-2-yl)((S)-3-hydroxypyrrolidin-1-yl)methanone]

Row | EC50 [µM] | Compound
19 | < 10 | O=C(c1oc2ccncc2c1Nc1ccc(I)cc1F)N1CC[C@H](O)[C@H]1CO [Example 131, (3-(2-fluoro-4-iodophenylamino)furo[3,2-c]pyridin-2-yl)((2R,3S)-3-hydroxy-2-(hydroxymethyl)pyrrolidin-1-yl)methanone]
20 | < 10 | O=C(NCC[C@H](O)CO)c1oc2ccncc2c1Nc1ccc(I)cc1F [Example 95, 3-(2-fluoro-4-iodophenylamino)-N-((S)-3,4-dihydroxybutyl)furo[3,2-c]pyridine-2-carboxamide]
21 | < 10 | O=C(c1oc2c(F)cncc2c1Nc1ccc(I)cc1F)N1C[C@H](O)[C@@H](O)C1 [Example 158, ((3S,4S)-3,4-Dihydroxy-pyrrolidin-1-yl)-[7-fluoro-3-(2-fluoro-4-iodo-phenylamino)-furo[3,2-c]pyridin-2-yl]-methanone]
22 | < 10 | O=C(NC(CO)CO)c1oc2ccncc2c1Nc1ccc(I)cc1F [Example 68, 3-(2-fluoro-4-iodophenylamino)-N-(1,3-dihydroxypropan-2-yl)furo[3,2-c]pyridine-2-carboxamide]
23 | < 10 | O=C(NOCCO)c1oc2ccncc2c1Nc1ccc(Br)cc1Cl [Example 26, 3-(4-Bromo-2-chloro-phenylamino)-furo[3,2-c]pyridine-2-carboxylic acid (2-hydroxy-ethoxy)-amide]
24 | < 10 | O=C(c1oc2ccncc2c1Nc1ccc(I)cc1F)N1CC[C@@H](O)C1 [Example 59, (3-(2-fluoro-4-iodophenyl amino)furo[3,2-c]pyridin-2-yl)((R)-3-hydroxypyrrolidin-1-yl)methanone]
25 | < 10 | O=C(NOCCO)c1oc2ccnc(Cl)c2c1Nc1ccc(I)cc1F [Example 147, 4-Chloro-3-(2-fluoro-4-iodo-phenylamino)-furo[3,2-c]pyridine-2-carboxylic acid (2-hydroxy-ethoxy)-amide]
26 | < 10 | CSc1ccc(Nc2c(C(=O)NOCCO)oc3c(Cl)cncc23)c(F)c1 [Example 152, 7-Chloro-3-(2-fluoro-4-methylsulfanyl-phenylamino)-furo[3,2-c]pyridine-2-carboxylic acid (2-hydroxy-ethoxy)-amide]
27 | < 10 | O=C(NCC(O)CO)c1oc2ccncc2c1Nc1ccc(I)cc1F (stereo not shown) [Example 84, 3-(2-fluoro-4-iodophenylamino)-N-(2,3-dihydroxypropyl)furo[3,2-c]pyridine-2-carboxamide]
28 | < 10 | O=C(NOc1ccccc1)c1oc2ccncc2c1Nc1ccc(I)cc1F [Example 111, 3-(2-Fluoro-4-iodo-phenylamino)-N-phenyloxyfuro[3,2-c]pyridine-2-carboxamide]
29 | < 10 | O=C(c1oc2ccncc2c1Nc1ccc(I)cc1F)N1C[C@H](O)C[C@H]1CO [Example 127, (3-(2-fluoro-4-iodophenylamino)furo[3,2-c]pyridin-2-yl)((2S,4R)-4-hydroxy-2-(hydroxymethyl)pyrrolidin-1-yl)methanone]
30 | < 10 | O=C(NOCc1ccccc1)c1oc2ccncc2c1Nc1ccc(I)cc1F [Example 44, (2-Fluoro-4-iodo-phenylamino)-N-benzyloxyfuro[3,2-c]pyridine-2-carboxamide]
31 | < 10 | O=C(NCCO)c1oc2ccncc2c1Nc1ccc(I)cc1F [Example 82, 3-(2-fluoro-4-iodophenylamino)-N-(2-hydroxyethyl)furo[3,2-c]pyridine-2-carboxamide]
32 | < 10 | C[C@H](O)CONC(=O)c1oc2c(F)cncc2c1Nc1ccc(I)cc1F [Example 155, 7-Fluoro-3-(2-fluoro-4-iodo-phenylamino)-furo[3,2-c]pyridine-2-carboxylic acid ((S)-2-hydroxy-propoxy)-amide]
33 | < 10 | O=C(c1oc2ccncc2c1Nc1ccc(I)cc1F)N1C[C@H](O)C[C@@H]1CO [Example 126, (3-(2-fluoro-4-iodophenylamino)furo[3,2-c]pyridin-2-yl)((2R,4R)-4-hydroxy-2-(hydroxymethyl)pyrrolidin-1-yl)methanone]
34 | < 10 | O=C(c1oc2ccncc2c1Nc1ccc(I)cc1F)N1C[C@@H](O)[C@@H](O)C1 [Example 73, (3-(2-fluoro-4-iodophenylamino)furo[3,2-c]pyridin-2-yl)((3S,4R)-3,4-dihydroxypyrrolidin-1-yl)methanone]
35 | < 10 | O=C(NOCCCO)c1oc2ccncc2c1Nc1ccc(I)cc1F [Example 45, (2-Fluoro-4-iodo-phenyl amino)-N-(3-hydroxypropoxy)furo[3,2-c]pyridine-2-carboxamide]

Row | Compound | EC50 [µM]
36 | CC(C)CONC(=O)c1oc2ccncc2c1Nc1ccc(I)cc1F [Example 42, (2-Fluoro-4-iodo-phenylamino)-N-isobutoxyfuro[3,2-c]pyridine-2-carboxamide] | < 10
37 | CC(C)(C)ONC(=O)c1oc2ccncc2c1Nc1ccc(I)cc1F [Example 99, (2-Fluoro-4-iodo-phenylamino)-N-tert-butoxyfuro[3,2-c]pyridine-2-carboxamide] | < 10
